In publication PMC5409245, “An albumin-based tumor-targeted oxaliplatin prodrug with distinctly improved anticancer activity in vivo” (Chemical Science, 2016):

Experiments:
[1] = Stability in aqueous solution by analytical RP-HPLC; type: physicochemical
Method: The stability of the compounds in aqueous solution was monitored over several hours using analytical RP-HPLC. […] Thus, the hydrolysis can be clearly attributed to the maleimide moiety.
(§1) RP-HPLC stability and binding studies
(§2) To determine the stability, especially of the maleimide-function, 0.5 mM solutions of the complexes were prepared in triple distilled water and measured repeatedly over several hours. For determination of the binding rate towards human serum albumin (HSA), freshly prepared 1 mM aqueous solutions of a compound and HSA were mixed 1:1 and also measured repeatedly over several hours. All studies were carried out using a reversed-phase Waters XBridge C18 column on a Dionex Summit System. Milli-Q water, containing 0.1% formic acid, and methanol were used as eluents and a standard gradient from 5–95% methanol in 20 minutes was chosen. The autosampler, where the samples were incubated, was temperature controlled at 20°C and the column at 25°C. The loss of the complexes was monitored via UV-VIS detector at 225 nm and evaluated by the decrease of the compound […]
(§3) For sample preparation compounds 7– 14 were incubated separately in FCS. […] The samples were then stored in the autosampler at 37°C for 21 h and analyzed

[2] = biological target: T1, albumin fraction of fetal calf serum (Bos taurus, UniProt P02769); experiment: Binding studies in fetal calf serum by SEC-ICP-MS; type: in vitro ADME; conditions: 37 °C
T1 construct: from tissue; host or cells: fetal calf serum (whole serum)
Method: To ascertain the actual binding target, the binding rate and the stability of the formed species under biological conditions, the compounds were incubated with fetal calf serum at 37 °C and sulfur- and platinum-containing (macro)molecules were measured with size exclusion chromatography inductively coupled plasma mass spectrometry (SEC-ICP-MS) over 21 h. Already at the first scan (∼5–10 min after incubation) ∼50% of the maleimide-containing compounds 7–8 and 11–12 were bound to the albumin fraction at 7.6 min (see Table S11 ^† for the corresponding size ladder). At the next time point after 140 min, in all cases, >80% of the drug was bound to albumin. […] Thus, the fast as well as specific binding to serum albumin was verified. […]
To determine the stability, especially of the maleimide-function, 0.5 mM solutions of the complexes were prepared in triple distilled water and measured repeatedly over several hours. For determination of the binding rate towards human serum albumin (HSA), freshly prepared 1 mM aqueous solutions of a compound and HSA were mixed 1:1 and also measured repeatedly over several hours. […] The loss of the complexes was monitored via UV-VIS detector at 225 nm and evaluated by the decrease of the compound […]
For sample preparation compounds 7– 14 were incubated separately in FCS. […] The samples were then stored in the autosampler at 37°C for 21 h and analyzed […]

[3] = Reduction with ascorbic acid monitored by RP-HPLC and 1H-NMR; type: physicochemical; conditions: 1 mM complex, 10 equivalents ascorbic acid, phosphate buffer pH = 7.4
Method: As one explanation of the observed differences between the compounds might be altered reducibility, we investigated the reduction rate in the presence of ascorbic acid in phosphate-buffered solution at pH = 7.4 using NMR spectroscopy and HPLC measurements. To reduce the number of additional signals from hydrolyzed maleimide species in the spectra, only the succinimide-functionalized compounds 9–10 and 13–14 were evaluated in these experiments (Fig. 7 and S6 ^†). For both NMR and HPLC measurements, the same complex concentrations (1 mM) and 10 equivalents ascorbic acid were used. […] Overall, there is a strong correlation between the reduction data and the in vivo activity. As such, the fast reduction of the cisplatin derivatives correlates with the low in vivo activity of 8 and relatively low plasma levels after 24 h. […]
1 mM solutions of the succinimide derivatives 9– 10 and 13–14 in 100 mM phosphate buffer (pH=7.4) were freshly prepared, mixed with 10 mM solutions of ascorbic acid in 100 mM phosphate buffer (pH=7.4) and measured by RP-HPLC every hour for up to 24 h. […] The reduction of the compound was monitored via UV-VIS detector at 225 nm and evaluated by the decrease of the initial compound peak area. […]

[4] = Serum platinum levels 24 h after single treatment (SEC-ICP-MS and FI-ICP-MS); type: in vivo, BALB/c mice
Excerpt: It is well accepted that albumin targeting distinctly impacts on the plasma half-life time as well as tissue distribution.[36] Especially, the enhanced accumulation due to the EPR effect makes this form of tumor-targeting very interesting for the development of novel cancer therapeutics.[13] As our novel compounds have a double prodrug nature (albumin-binding and the need of activation by reduction), we were interested in the drug tissue distribution after treatment. To this end, male CT-26-bearing BALB/c mice were treated once with our compounds followed by sample collection 24 h later. […] In accordance to many other non-targeted drugs,[37]–[40] for both platinum(II) drugs the intratumoral drug levels were distinctly lower than in the liver and kidney (which usually have very high drug levels due to their important function in metabolism and excretion).
Mice were treated once i.v. with 9 mg kg^–1 oxaliplatin and the equimolar concentrations in the case of 11 and 12 as well as 3 mg kg^–1 cisplatin and an equimolar dose in the case of 8. After 24 h, animals were anesthetized, sacrificed by heart puncture and tumor, liver, kidney tissue as well as serum were collected. Each experimental group contained four animals. (A) Organ platinum-distribution measured by ICP-MS. Data are expressed as mean ± standard deviation. (B) Platinum-SEC-ICP-MS measurements of serum samples (C) serum platinum levels measured by FI-ICP-MS. Data are expressed as mean ± standard deviation.
Table S10 : Column recovery.
Drug Conc. (µM) SD Column SD
A protein/amino acid mix was prepared to assess the separation performance of the applied SEC-HPLC setup. The mixture contained HSA, myoglobin, GSSG, and methionine. It has to be mentioned that HSA is forming dimers over time. However, the separation of the monomer and the dimer of HSA cannot be resolved with this chromatographic column.
Table S11 : Resulting size ladder.
SEC-ICP-MS measurements of in vivo serum samples
The ICP-QMS iCAP Thermo Scientific (Bremen, Germany) was used. Oxygen (purity 4.5, Linde Gas GmbH, Vienna, Austria) was used as reaction gas. The ICP-MS operation parameters are […]
Table S12 : ICP-MS operation parameters.
Nebulizer gas flow: 1.01 L/min
Aux. gas flow: 0.80 L/min
Plasma gas flow: 14 L/min
Reaction gas (oxygen) flow: 0.370 mL/min
As HPLC system a Thermo Scientific Transcend HPLC system (San Jose, CA, USA) was coupled to the ICP-QMS iCAP Thermo Scientific. Qtegra Intelligent Scientific Data Solution (version 2.4.1800.33) was employed for the data treatment. HPLC chromatographic conditions are […]
Table S13 : Chromatographic conditions.
HPLC column: BioBasic SEC-60 A, 4.6x250 mm, 5µm.
Eluent: 50 mM CH3COONH4, pH = 6.0.
Column Temperature: Room temperature
Autosampler Temperature: 37°C […]

[5] = biological target: T2, human serum albumin (HSA) (Homo sapiens, UniProt P02768); experiment: Albumin-binding rate by RP-HPLC (decrease of unbound drug peak area); conditions: 1 eq. of HSA used
T2 construct: purchased Sigma Aldrich
Method: Next, the binding of the maleimide-functionalized complexes to the thiol group of human serum albumin (HSA) was investigated. Therefore, compounds 7–8 and 11–12 were incubated with HSA and the decrease of the peak area of the unbound drug was monitored (Fig. 2B, Table S19 ^†).
as §1, §2, §3

[6] = system: CT-26 tumors; experiment: Histological evaluation (H/E) of apoptotic and mitotic cell fractions in CT-26 tumors; type: in vivo, BALB/c mice; conditions: tumors of male mice, day 12, H/E stain, counting
Method: In order to better understand the observed differences in the activity of our compound panel, in a second experiment male CT-26-bearing animals were sacrificed on day 12 (24 h after the last treatment) and paraffin-embedded tumors were evaluated by H/E stain. […] In addition, as depicted in Fig. 5, the tumors of mice treated with 12 were clearly smaller than the ones of the other treatment groups. […] Furthermore, the histological evaluation of tumor material was only possible for 3 animals because the fourth mouse already experienced a complete remission at time of section (which means that the best responding animal was not available for evaluation). […]
mice was performed only with the endpoint overall survival. For cisplatin and 8, the […]
was performed. […]
experimental group contained four animals). Tumor volumes were calculated as described in the experimental part. […]
Figure S5: Apoptosis and mitosis levels in tumors after the treatment with compound 8, 11 and 12 in comparison to cis- and oxaliplatin: CT-26 cells were injected subcutaneously into the right flank of male BALB/c mice. […] The fractions of apoptotic and mitotic cells were evaluated by counting (4 pictures per sample, at least 300 cells per picture were counted). […]
The statistical significance was calculated by One-Way Anova and is indicated with asterisks (* P < 0.05; ** P < 0.01; *** P < 0.001).

[7] = system: subcutaneous CT-26 tumors
Method: Mice were treated twice a week (Monday and Thursday) i.v. with concentrations equimolar to 9 mg kg^–1 oxaliplatin (each experimental group contained four animals). […] The experiment was performed twice with two different endpoints: overall survival vs. tissue collection 12 days after the first treatment. […] Data are means ± SEM.
CT-26 cells (5x105 in serum-free medium) were injected subcutaneously into the right flank
of Balb/c mice (gender is indicated in the respective figure). Animals were treated with the
indicated oxaliplatin-releasing drugs at concentrations equimolar to 9 mg/kg oxaliplatin (i.v.;
12 was dissolved in 0.9% NaCl solution, 11 in 10% propylene glycol/0.9% NaCl, and
oxaliplatin in 5% glucose solution according to the clinical protocol) twice a week (Mondays
and Thursdays). In case of cisplatin-releasing prodrugs, a dose equimolar to 3 mg/kg cisplatin
was applied twice a week. For all experiments four animals per treatment group were used.
Animals were controlled for distress development every day and tumor size was assessed
regularly by caliper measurement. Tumor volume was calculated using the formula: (length ×
width2). The experiments with oxaliplatin, 11 and 12 in male mice were performed twice
with two different endpoints: 1) overall survival and 2) collection of organ and tumor
In the second experiments, tumors were
formalin-fixed and paraffin-embedded.
Results were analyzed and illustrated and statistical analyses performed (as indicated) with
GraphPad Prism (GraphPad Software version 5,San Diego, CA).

[8] = female BALB/c mice, 9 mg kg^–1 i.v. twice a week

T1 sequence (P02769 25-607): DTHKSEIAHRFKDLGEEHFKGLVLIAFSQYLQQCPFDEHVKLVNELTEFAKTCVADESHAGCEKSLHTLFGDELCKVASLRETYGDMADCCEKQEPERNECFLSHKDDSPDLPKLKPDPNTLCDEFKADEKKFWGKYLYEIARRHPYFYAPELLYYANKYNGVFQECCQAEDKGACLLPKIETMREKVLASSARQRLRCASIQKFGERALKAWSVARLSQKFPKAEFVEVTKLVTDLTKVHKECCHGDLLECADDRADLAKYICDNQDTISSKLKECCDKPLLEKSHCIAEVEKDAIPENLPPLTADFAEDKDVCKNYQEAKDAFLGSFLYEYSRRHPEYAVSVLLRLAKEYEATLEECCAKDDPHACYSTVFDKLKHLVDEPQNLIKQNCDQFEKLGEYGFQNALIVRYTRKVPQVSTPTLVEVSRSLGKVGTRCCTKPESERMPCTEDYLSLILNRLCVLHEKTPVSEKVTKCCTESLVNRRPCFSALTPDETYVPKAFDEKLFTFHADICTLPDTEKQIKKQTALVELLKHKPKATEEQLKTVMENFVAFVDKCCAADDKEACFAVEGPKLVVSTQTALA
T2 sequence (P02768 25-609): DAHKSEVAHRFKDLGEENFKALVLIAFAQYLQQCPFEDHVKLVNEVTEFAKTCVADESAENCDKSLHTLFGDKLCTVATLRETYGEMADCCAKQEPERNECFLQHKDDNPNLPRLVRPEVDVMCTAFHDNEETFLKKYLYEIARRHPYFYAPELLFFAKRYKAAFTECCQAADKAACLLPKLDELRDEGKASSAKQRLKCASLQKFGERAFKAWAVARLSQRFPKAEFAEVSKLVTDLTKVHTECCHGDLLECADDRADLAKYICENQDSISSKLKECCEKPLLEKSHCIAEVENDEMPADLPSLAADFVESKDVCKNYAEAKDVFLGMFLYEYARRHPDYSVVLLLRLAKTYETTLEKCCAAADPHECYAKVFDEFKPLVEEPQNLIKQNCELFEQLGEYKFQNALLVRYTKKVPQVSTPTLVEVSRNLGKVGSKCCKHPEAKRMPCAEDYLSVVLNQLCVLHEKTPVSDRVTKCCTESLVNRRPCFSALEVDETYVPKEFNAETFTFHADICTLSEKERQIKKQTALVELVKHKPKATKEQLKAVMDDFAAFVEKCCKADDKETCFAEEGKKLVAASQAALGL

In the case of `CC(=O)[O][Pt]([NH2])([NH2])([Cl])([Cl])[O]C(=O)NCCN1C(=O)CCC1=O` [Compound 10], the “changes in aqueous solution” value ([1]; over a period of 24 hours) is reported as “no changes”, the protein binding ability ([2]; during 21 h) is reported as “negligible protein binding ability” and the “reduction by ascorbic acid, cisplatin-derived vs oxaliplatin-based” value [3] is reported as “reduced much faster”. The “stability towards reduction, acetato vs methoxido ligand” value [3] was “more stable”.

In the case of `N.N.[Cl][Pt][Cl]` [cisplatin], the “Pt conc. in serum” value ([4]; Mouse #1, serum 24 h after single i.v. treatment) is reported as 48 µg/L, the “Pt conc. in serum” value ([4]; Mouse #2, serum 24 h after single i.v. treatment) is reported as 46 µg/L and the “Pt conc. in serum” value ([4]; Mouse #3, serum 24 h after single i.v. treatment) is reported as 43 µg/L. For the same compound, the “Pt conc. in serum” value ([4]; Mouse #4, serum 24 h after single i.v. treatment) was 44 µg/L.

In the case of `C[O][Pt]([NH2])([NH2])([Cl])([Cl])[O]C(=O)NCCN1C(=O)C=CC1=O` [Compound 7, (OC-6-44)-Diamminedichloridomethoxido[2-(2,5-dioxo-2,5-dihydro-1H-pyrrol-1-yl)ethylcarbamato]platinum(IV)], the “hydrolysis in aqueous solution” value ([1]; aqueous solution, 20°C) is reported as “less than 1 % h^–1”, the “Albumin-binding half-life λ1/2” value [5] is reported as 5.1 h and the “drug bound to the albumin fraction” value ([2]; 100 µM, first scan (∼5–10 min after incubation)) is reported as about 50%.

In the case of `O=C1[O][Pt]2([NH][C@@H]3CCCC[C@H]3[NH]2)[O]C1=O` [oxaliplatin], the “apoptotic cell fraction in tumors” value [6] is reported as “highest”, the adverse effects [7, 8] is reported as “very strong adverse effects” and the anticancer activity [7, 8] is reported as “widely ineffective”. It also gave an onset of activity ([7]; male BALB/c mice, i.v. twice a week, equimolar to 9 mg kg^–1 oxaliplatin) of 8 days.
